# ± gives the standard deviation of the averaged measurements.
# What was measured:
# SALINOMYCIN = compound: CC[C@@H](C(=O)[C@@H](C)[C@@H](O)[C@H](C)[C@@H]1O[C@@H]([C@@H](CC)C(=O)O)CC[C@@H]1C)[C@H]1O[C@]2(C=C[C@@H](O)[C@]3(CC[C@@](C)([C@H]4CC[C@](O)(CC)[C@H](C)O4)O3)O2)[C@H](C)C[C@@H]1C [SALINOMYCIN]; test: area under dose-response curve of surviving fraction (unscaled, Aref=0) (surviving fraction x log10(nM)); higher = more resistant; conditions: exposure time: 5 days; dose range 0.5-1000 nM
# Procedure, shortened: (§1)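 Each tumour cell line was screened three times in 384-well plates, receiving eight inhibitor concentrations from 0.5 to 1000 nM for five days. CellTiter-Glo luminescence gave viability, normalised to DMSO-only wells. Using the drc R package, surviving fractions were fitted with 3-parameter logistic dose-response curves, and the unscaled activity area over log10 dose (Aref = 0) was taken as the area under the curve.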
# FLAVOPIRIDOL [1] = compound: T1, CN1CC[C@H](c2c(O)cc(O)c3c(=O)cc(-c4ccccc4Cl)oc23)[C@H](O)C1 [FLAVOPIRIDOL]; test: as above; conditions: exposure time: 5 days; dose range 0.5-1000 nM
# Procedure, shortened: as §1
# DECITABINE = compound: Nc1ncn([C@H]2C[C@H](O)[C@@H](CO)O2)c(=O)n1 [DECITABINE]; test: as above; conditions: exposure time: 5 days; dose range 0.5-1000 nM
# Procedure, shortened: as §1
# 17-AAG = compound: C=CCNC1=C2C[C@@H](C)C[C@H](OC)[C@H](O)[C@@H](C)/C=C(\C)[C@H](OC(N)=O)[C@@H](OC)/C=C\C=C(/C)C(=O)NC(=CC1=O)C2=O [17-AAG]; test: as above; conditions: exposure time: 5 days; dose range 0.5-1000 nM
# Procedure, shortened: as §1
# NUTLIN3 = compound: COc1ccc(C2=N[C@@H](c3ccc(Cl)cc3)[C@@H](c3ccc(Cl)cc3)N2C(=O)N2CCNC(=O)C2)c(OC(C)C)c1 [NUTLIN3]; test: as above; conditions: exposure time: 5 days; dose range 0.5-1000 nM
# Procedure, shortened: as §1
# 2-METHOXYESTRADIOL = compound: COc1cc2c(cc1O)CC[C@@H]1[C@@H]2CC[C@]2(C)[C@@H](O)CC[C@@H]12 [2-METHOXYESTRADIOL]; test: as above; conditions: exposure time: 5 days; dose range 0.5-1000 nM
# Procedure, shortened: as §1
# LAPATINIB = compound: CS(=O)(=O)CCNCc1ccc(-c2ccc3ncnc(Nc4ccc(OCc5cccc(F)c5)c(Cl)c4)c3c2)o1 [LAPATINIB]; test: as above; conditions: exposure time: 5 days; dose range 0.5-1000 nM
# Procedure, shortened: as §1
# ABT-737 = compound: CN(C)CC[C@H](CSc1ccccc1)Nc1ccc(S(=O)(=O)NC(=O)c2ccc(N3CCN(Cc4ccccc4-c4ccc(Cl)cc4)CC3)cc2)cc1[N+](=O)[O-] [ABT-737]; test: as above; conditions: exposure time: 5 days; dose range 0.5-1000 nM
# Procedure, shortened: as §1
# [2] = compound: CCN(CC)CCCCNc1ncc2cc(-c3cc(OC)cc(OC)c3)c(NC(=O)NC(C)(C)C)nc2n1; test: as above; conditions: exposure time: 5 days; dose range 0.5-1000 nM
# Procedure, shortened: as §1
# VISMODEGIB = compound: CS(=O)(=O)c1ccc(C(=O)Nc2ccc(Cl)c(-c3ccccn3)c2)c(Cl)c1 [VISMODEGIB]; test: as above; conditions: exposure time: 5 days; dose range 0.5-1000 nM
# Procedure, shortened: as §1
# FLUOROURACIL = compound: O=c1[nH]cc(F)c(=O)[nH]1 [FLUOROURACIL]; test: as above; conditions: exposure time: 5 days; dose range 0.5-1000 nM
# Procedure, shortened: as §1
# DOXORUBICIN = compound: COc1cccc2c1C(=O)c1c(O)c3c(c(O)c1C2=O)C[C@@](O)(C(=O)CO)C[C@@H]3O[C@H]1C[C@H](N)[C@H](O)[C@H](C)O1 [DOXORUBICIN]; test: as above; conditions: exposure time: 5 days; dose range 0.5-1000 nM
# Procedure, shortened: as §1
# FLAVOPIRIDOL [3] = compound: T1, FLAVOPIRIDOL; test: surviving fraction relative to DMSO-only wells; higher = less growth inhibition; conditions: exposure time: 5 days
# Procedure, shortened: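 Inhibitors were tested at 0.5, 1, 5, 10, 50, 100, 500 and 1000 nM, applied continuously for five days beginning 24 hours after log-phase tumour cells were seeded at 250–500 per well in 384-well plates. CellTiter-Glo luminescence served as the viability measure, expressed as surviving fraction against the median of DMSO-only wells. Each line, screened three times, was kept only with replicate Pearson r >0.7 and median Z' >0.3.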
Test System,area under dose-response curve (SALINOMYCIN),area under dose-response curve (FLAVOPIRIDOL [1]),area under dose-response curve (DECITABINE),area under dose-response curve (17-AAG),area under dose-response curve (NUTLIN3),area under dose-response curve (2-METHOXYESTRADIOL),area under dose-response curve (LAPATINIB),area under dose-response curve (ABT-737),area under dose-response curve [2],area under dose-response curve (VISMODEGIB),area under dose-response curve (FLUOROURACIL),area under dose-response curve (DOXORUBICIN),surviving fraction (FLAVOPIRIDOL [3]; 0.5 nM),surviving fraction (FLAVOPIRIDOL [3]; 1 nM),surviving fraction (FLAVOPIRIDOL [3]; 5 nM),surviving fraction (FLAVOPIRIDOL [3]; 10 nM),surviving fraction (FLAVOPIRIDOL [3]; 50 nM),surviving fraction (FLAVOPIRIDOL [3]; 100 nM),surviving fraction (FLAVOPIRIDOL [3]; 500 nM),surviving fraction (FLAVOPIRIDOL [3]; 1000 nM)
MDAMB134 BREAST,3.52,2.96,3.67,1.91,3.16,2.73,3.79,3.13,2.92,2.56,2.74,2.35,1 ± 0.019,0.991 ± 0.041,1.09 ± 0.037,1.13 ± 0.088,1.52 ± 0.23,0.977 ± 0.15,0.303 ± 0.016,0.2765 ± 0.0021
MDAMB231 BREAST,2.97,2.26,3.17,2.14,3.31,3,3.27,3.28,3.28,3.04,3.13,2.1,0.99 ± 0.022,0.9902 ± 0.0098,1.02 ± 0.042,0.995 ± 0.039,0.833 ± 0.018,0.372 ± 0.028,0.0403 ± 0.0017,0.0366 ± 0.0017
MDAMB361 BREAST,2.72,2.59,3.03,1.34,2.83,2.61,2.68,2.84,2.94,2.31,2.28,2.58,0.919 ± 0.18,0.814 ± 0.066,0.841 ± 0.05,0.861 ± 0.13,0.937 ± 0.13,0.719 ± 0.039,0.223 ± 0.021,0.229 ± 0.022
MDAMB436 BREAST,1.74,2.13,3.1,1.77,2.99,3.01,3.11,3.13,2.96,2.81,2.81,2.04,0.998 ± 0.042,0.991 ± 0.071,1.06 ± 0.14,0.941 ± 0.036,0.556 ± 0.026,0.183 ± 0.024,0.185 ± 0.0025,0.182 ± 0.0028
MFM223 BREAST,2.35,2.3,3.65,1.07,3.57,3.08,3.48,4.23,2,3.12,2.92,2,1.45 ± 0.57,1.45 ± 0.64,1.46 ± 0.61,1.25 ± 0.4,0.351 ± 0.032,0.119 ± 0.045,0.0438 ± 0.021,0.0642 ± 0.061
MG63 BONE,2.67,2.39,1.88,2.62,3.4,3.27,3.5,3.59,2.88,3.19,3.26,1.9,1.06 ± 0.022,1.06 ± 0.023,1.165 ± 0.0064,1.19 ± 0.033,1.35 ± 0.045,0.782 ± 0.049,0.0347 ± 0.0023,0.0313 ± 0.0015

# — the supplement of paper PMC6045584
